Tests used:
KRAS-G12C/SOS1 = KRAS-G12C/SOS1 (Homo sapiens (Human), UniProt Q07889); assay: Detection of inhibitory effects of compounds on KRAS-G12C/SOS1 (KRASG12C/SOS binding kit, HTRF); conditions: Em665/620, read-out: IC50, inhibitory activity on interaction of KRAS-G12C/SOS1
From the text: Experimental objective: The inhibitory effects of the tested compounds on KRAS-G12C/SOS1 were detected. IC50 was used to characterize the inhibitory ability of the compounds on the KRAS-G12C/SOS1. The lower IC50 value indicated the stronger inhibitory ability. BI-3406 was used as a positive control compound.
Experimental reagents: KRASG12C/SOS binding kit (Cisbio, cat. 63ADK000CB16PEG); DMSO (Sigma, cat. D8418-1L); and 384-well white plate (PerkinElmer, cat. 6007290)
• 1. Preparation of compounds: the test compounds were dissolved in 100% DMSO to obtain 10 mM stock solutions and the stock solutions were stored in a refrigerator in the dark. • 2. Kinase reaction process:
Preparation of compounds: the test compounds had the concentration of 5,000 nM and diluted in a 384-well plate into a 100% DMSO solution at the 200-fold final concentration, and the compounds were diluted 3-fold with 10 concentrations. 50 nL of the compounds at the 200-fold final concentration were transferred to the plate of interest, the 384-well plate, using a dispenser Echo 550. 50 nL of 100% DMSO was added to each negative control well and positive control well.
A Tag1-SOS1 solution at the 4-fold final concentration was prepared using a diluent buffer.
2.5 μL of the Tag1-SOS1 solution at the 4-fold final concentration was added to the 384-well plate.
A Tag2-KRAS-G12C solution at the 4-fold final concentration was prepared using the diluent buffer.
2.5 μL of the Tag2-KRAS-G12C solution at the 4-fold final concentration was respectively added into compound wells and the positive control wells; and 2.5 μL of the diluent buffer was added to the negative control wells.
The 384-well plate was centrifuged at 1,000 rpm for 30 seconds, shaken and mixed uniformly, and incubated at room temperature for 15 minutes.
An Anti-Tag1-TB3+ solution at the 1-fold final concentration and an Anti-Tag2-XL665 solution at the 1-fold final concentration were prepared using a detection buffer, the two solutions were mixed uniformly to obtain a Mix solution, and 5 μL of the Mix solution was added into each well.
The 384-well plate was centrifuged at 1,000 rpm for 30 seconds, shaken and mixed uniformly, and incubated at 4° C. for 120 minutes.
Em665/620 was read using an Envision microplate reader.
Inhibition %=(Max signal−Compound signal)/(Max signal−Min signal)×100 Calculation formula • wherein the Min signal was the mean value of the negative control wells, and the Max signal was the mean value of the positive control wells.
A dose-response curve was fitted using the log value of the concentration as an X axis and the percentage of the inhibitory rate as a Y axis by using the log(inhibitor) vs. response-variable slope of an analytical software GraphPadPrism5, thereby obtaining the IC50 value of each compound on an enzyme activity.

p-ERK of PC-9 cells = assay: p-ERK HTRF assay in PC-9 cells; assay type: cell-based; conditions: Homo sapiens, PC-9, 1 h, PC-9 lung cancer cells, 1 hour treatment, read-out: IC50, inhibitory activity on p-ERK of PC-9 cells
Protocol: IC50 Values of Compounds Determined by p-ERK HTRF Assay in PC-9 Cells
Experimental objective: an inhibitory effect of the test compounds on the phosphorylation of PC-9ERK of lung cancer cells at a cellular level was evaluated by detecting the phosphorylation of ERK.
• PRMI 1640 medium (Invitrogen-11875093) • 0.25% pancreatin (Invitrogen-25200056) • Phosphoric acid buffer salt solution (PBS, pH 7.4) (Invitrogen-10010023) • Double-antibody (PS) (Invitrogen-15140122) • Fetal bovine serum (FBS) (Gibco-10091148) • Trypan blue (Gibco-15250061) • 10-cm culture dish (Corning-430167) • 10-mL pipette (Costar-4488) • Pipettor (Sartorius-17009031) • 15-mL centrifuge tube (Corning-430052) • 50-mL centrifuge tube (Corning-430829) • Cryotube (Thermo-377267) • 1.5-mL EP tube (Axygen-MCT-150-C-S) • Cell incubator (Thermo-371) • Microscope (Olympus-CKX41) • Centrifuge (Flying Pigeon-TDL-80-2B) • Cell counter (Countstar-IC-1000) • Envision (Perkin Elmer) • Spark 10M (TECAN) • Phospho-ERK1/2 (Thr202/Tyr204) Experimental kit (Cisbio, Cat. No. 64AERPEG) • PC-9 cells: RPMI1640+10% FBS+1% PS
• 1) PBS, 0.25% pancreatin, and a cell culture medium were placed in a water-bath kettle at 37° C. for preheating; • 2) cells were observed under a microscope, a fusion degree was evaluated, and no bacterial and fungi pollution was confirmed; • 3) a culture solution was removed, the cells were washed with 5 mL of PBS and digested with 2 mL of the 0.25% trypsin, the digestion was terminated with 10 mL of the fresh cell culture medium, a culture dish was rinsed, and the cells were transferred to a 15-mL centrifuge tube; • 4) the collected cells were centrifuged at 1,000 rpm for 5 minutes; • 5) after the centrifugation, the supernatant was discarded, the cells were resuspended in 5 mL of the cell culture medium, 20 μL of the resuspended cells were aspirated, and the number and viability of viable cells were recorded; • 6) the cell culture medium was used and the cell density was adjusted (PC-9:10,000 cells/well, and 45 μL per well); • 7) in a 384-well plate, 45 μL of a cell suspension per well was transferred according to an experimental design figure; and • 8) the cells were incubated overnight at 37° C. and 5% CO2.
• 1) The compounds were diluted from the stock concentration to 10 mM with 100% DMSO (Trametinib was diluted to 1 mM), then 3-fold diluted into 10 points (5 μL of the diluted compounds with the concentration of 10 mM were transferred to 10 μL of the DMSO in an LDV plate), and centrifuged at 1,000 rpm/min for 1 minute; • 2) 5 μL of the diluted compounds of step 1) were transferred to an inter plate 1 containing 45 μL of the cell culture medium (the compounds were diluted from 1,000× to 100×); • 3) 5 μL of the diluted compounds of step 2) were transferred to an inter plate 2 containing 45 μL of the cell culture medium (the compounds were diluted from 100× to 10×); • 4) 5 μL of the compounds were pipetted from the inter plate 2 into a cell culture plate (the compounds were diluted from 10 folds to 1 fold), the final concentrations of the test compounds were 10,000 nM, 3333.33 nM, 1111.11 nM, 370.37 nM, 123.46 nM, 41.15 nM, 13.72 nM, 4.57 nM, 1.52 nM, and […], the solution was centrifuged at 1,000 rpm/min for 1 minute, and the final content of the DMSO was 0.1%; and • 5) the cells were treated in an incubator at 37° C. for 1 hour. […]

KRAS-G12C/SOS1, sequence (Q07889 whole entry, stated change not applied): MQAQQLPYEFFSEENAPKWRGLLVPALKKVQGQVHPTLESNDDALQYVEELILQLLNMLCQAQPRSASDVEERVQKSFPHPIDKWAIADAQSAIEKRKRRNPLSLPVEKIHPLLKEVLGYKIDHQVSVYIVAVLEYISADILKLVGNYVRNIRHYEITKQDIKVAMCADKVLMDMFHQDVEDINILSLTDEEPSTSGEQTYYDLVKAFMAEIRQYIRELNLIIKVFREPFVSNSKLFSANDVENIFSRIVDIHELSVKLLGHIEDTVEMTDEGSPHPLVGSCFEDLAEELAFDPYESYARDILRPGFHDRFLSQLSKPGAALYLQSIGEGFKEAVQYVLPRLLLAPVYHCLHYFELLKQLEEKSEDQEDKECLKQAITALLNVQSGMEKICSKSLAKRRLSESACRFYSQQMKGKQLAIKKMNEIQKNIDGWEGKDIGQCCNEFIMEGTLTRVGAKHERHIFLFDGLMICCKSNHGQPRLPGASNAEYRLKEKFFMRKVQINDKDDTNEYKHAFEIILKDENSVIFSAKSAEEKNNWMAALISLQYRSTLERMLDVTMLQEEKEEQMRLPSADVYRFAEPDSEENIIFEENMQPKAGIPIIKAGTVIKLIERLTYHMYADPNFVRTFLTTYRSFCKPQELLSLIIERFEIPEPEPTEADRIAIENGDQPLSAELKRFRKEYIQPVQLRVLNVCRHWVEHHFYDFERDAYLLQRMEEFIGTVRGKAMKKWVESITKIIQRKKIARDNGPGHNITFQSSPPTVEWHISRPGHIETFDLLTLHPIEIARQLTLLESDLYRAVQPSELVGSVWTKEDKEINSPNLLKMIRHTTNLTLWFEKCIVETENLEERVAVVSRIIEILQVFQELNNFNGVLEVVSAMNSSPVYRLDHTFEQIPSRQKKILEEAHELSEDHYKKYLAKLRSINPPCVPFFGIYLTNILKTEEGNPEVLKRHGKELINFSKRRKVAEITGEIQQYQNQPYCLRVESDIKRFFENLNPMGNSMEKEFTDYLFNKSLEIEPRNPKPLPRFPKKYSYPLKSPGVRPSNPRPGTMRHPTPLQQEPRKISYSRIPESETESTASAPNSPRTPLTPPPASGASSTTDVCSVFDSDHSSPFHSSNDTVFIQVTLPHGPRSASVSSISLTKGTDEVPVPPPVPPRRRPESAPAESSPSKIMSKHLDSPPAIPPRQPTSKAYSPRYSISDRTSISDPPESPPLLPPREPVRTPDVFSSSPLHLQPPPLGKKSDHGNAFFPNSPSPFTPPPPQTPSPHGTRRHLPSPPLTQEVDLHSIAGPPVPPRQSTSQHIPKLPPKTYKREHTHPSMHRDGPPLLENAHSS

Row | Structure (SMILES) | IC50 (KRAS-G12C/SOS1) [nM] | IC50 (p-ERK of PC-9 cells) [nM]
1 | C[C@@H](Nc1ccnc2cnc(N3CCC(C(=O)O)CC3)cc12)c1cccc(C(F)F)c1F [Compound B-35] | ≤ 100 | > 1000
2 | CNC(=O)C1CCN(c2cc3c(N[C@H](C)c4cccc(C(F)F)c4F)ccnc3cn2)CC1 [Compound B-36] | ≤ 100 | ≤ 300
3 | CC(=O)NC1CCN(c2cc3c(N[C@H](C)c4cccc(C(F)F)c4F)ccnc3cn2)CC1 [Compound B-37] | ≤ 100 | > 1000
4 | C[C@@H](Nc1ccnc2cnc(N3CCS(=O)(=O)CC3)cc12)c1cccc(C(F)F)c1F [Compound B-38] | ≤ 100 | ≤ 300
5 | C[C@@H](Nc1ccnc2cnc(N3CCN(C)C(=O)C3)cc12)c1cccc(C(F)F)c1F [Compound B-41] | ≤ 100 | ≤ 300
6 | CC(=O)N1CCN(c2cc3c(N[C@H](C)c4cccc(C(F)F)c4F)ccnc3cn2)CC1CO (some centres unmarked) [Compound B-44] | ≤ 100 | ≤ 300
7 | CC(=O)N1CCN(c2cc3c(N[C@H](C)c4cccc(C(F)F)c4F)ccnc3cn2)[C@@H](CO)C1 [Compound B-45] | ≤ 100 | ≤ 300
8 | CC(=O)N1CCN(c2cc3c(N[C@H](C)c4cccc(C(F)F)c4F)ccnc3cn2)[C@H](CO)C1 [Compound B-47] | ≤ 100 | ≤ 300
9 | COC[C@@H]1CN(C(C)=O)CCN1c1cc2c(N[C@H](C)c3cccc(C(F)F)c3F)ccnc2cn1 [Compound B-48] | ≤ 100 | ≤ 300
10 | CC(=O)N1CCN(c2cc3c(N[C@H](C)c4cccc(C(F)(F)F)c4)ccnc3cn2)CC1 [Compound B-49] | ≤ 100 | ≤ 300
11 | CC(=O)N1CCN(c2cc3c(N[C@H](C)c4cccc(C(F)(F)F)c4C)ccnc3cn2)CC1 [Compound B-50] | ≤ 100 | ≤ 300
12 | CC(=O)N1CCC(N)(c2cc3c(N[C@H](C)c4cccc(C(F)F)c4F)ccnc3cn2)CC1 [Compound B-51] | ≤ 100 | ≤ 300
13 | C[C@@H](Nc1ccnc2cnc(N3CCCS3(=O)=O)cc12)c1cccc(C(F)F)c1F [Compound B-52] | ≤ 100 | ≤ 300
14 | CC(=O)N1CCN(c2cc3c(N[C@H](C)c4cccc(C(F)F)c4F)ccnc3cn2)C(=O)C1 [Compound B-53] | ≤ 100 | 300 to 1000
15 | C[C@@H](Nc1ccnc2cnc(N3CCC(O)CC3=O)cc12)c1cccc(C(F)F)c1F (some centres unmarked) [Compound B-54] | ≤ 100 | 300 to 1000
16 | CC(=O)N1CCN(c2cc3c(N[C@H](C)c4cccc(C(F)F)c4F)ccnc3cn2)[C@@H](CC#N)C1 [Compound B-56] | ≤ 100 | ≤ 300
17 | CC(=O)N1C2CCC1CC(c1cc3c(N[C@H](C)c4cccc(C(F)F)c4F)ccnc3c(C)n1)C2 (some centres unmarked) [Compound B-67] | ≤ 100 | 300 to 1000
18 | CC(=O)N1C2CCC1CC(O)(c1cc3c(N[C@H](C)c4cccc(C(F)F)c4F)ccnc3c(C)n1)C2 (some centres unmarked) [Compound B-69] | ≤ 100 | > 1000

Next, values leading:

Row | IC50 (KRAS-G12C/SOS1) [nM] | IC50 (p-ERK of PC-9 cells) [nM] | Structure (SMILES)
19 | ≤ 100 | ≤ 300 | C[C@@H](Nc1ccnc2cnc(N3CCCCS3(=O)=O)cc12)c1cccc(C(F)F)c1F [Compound B-60]
20 | ≤ 100 | ≤ 300 | CC(=O)N1CCN(c2cc3c(N[C@H](C)c4cccc(C(F)F)c4F)ccnc3c(C)n2)CC1 [Compound B-62]
21 | ≤ 100 | ≤ 300 | CC(=O)N1CCN(c2cc3c(N[C@H](C)c4cccc(C(F)F)c4F)ccnc3c(C)n2)[C@@H](CO)C1 [Compound B-63]
22 | ≤ 100 | 300 to 1000 | Cc1nc(N2CCCCS2(=O)=O)cc2c(N[C@H](C)c3cccc(C(F)F)c3F)ccnc12 [Compound B-65]
23 | ≤ 100 | > 1000 | CC(=O)N1CCC(O)(c2cc3c(N[C@H](C)c4cccc(C(F)F)c4F)ccnc3c(C)n2)CC1 [Compound B-68]
24 | ≤ 100 | 300 to 1000 | Cc1nc(C2(O)CCC(O)CC2)cc2c(N[C@H](C)c3cccc(C(F)F)c3F)ccnc12 (some centres unmarked) [Compound B-70]
25 | ≤ 100 | ≤ 300 | CC(=O)N1CCN(c2cc3c(N[C@H](C)c4cccc(C(F)F)c4F)cc(C)nc3cn2)CC1 [Compound B-71]
26 | ≤ 100 | 300 to 1000 | Cc1cc(N[C@H](C)c2cccc(C(F)F)c2F)c2cc(N3CCCS3(=O)=O)ncc2n1 [Compound B-72]
27 | ≤ 100 | ≤ 300 | COc1nc(N2CCN(C(C)=O)CC2)cc2c(N[C@H](C)c3cccc(C(F)F)c3F)ccnc12 [Compound B-73]
28 | ≤ 100 | ≤ 300 | C[C@@H](Nc1ccnc2cnc(N3CCC(O)(CO)CC3)cc12)c1cccc(C(F)F)c1F [Compound B-74]
29 | ≤ 100 | 300 to 1000 | C[C@@H](Nc1ccnc2cnc(N3CCC(O)(CN)CC3)cc12)c1cccc(C(F)F)c1F [Compound B-75]
30 | ≤ 100 | ≤ 300 | CNC(=O)C1(O)CCN(c2cc3c(N[C@H](C)c4cccc(C(F)F)c4F)ccnc3cn2)CC1 [Compound B-76]
31 | ≤ 100 | ≤ 300 | C[C@@H](Nc1ccnc2cnc(N3C[C@H](O)C[C@H]3CO)cc12)c1cccc(C(F)F)c1F [Compound B-78]
32 | ≤ 100 | ≤ 300 | C[C@@H]1OCC2(CCN(c3cc4c(N[C@H](C)c5cccc(C(F)F)c5F)ccnc4cn3)CC2)[C@@H]1N [Compound B-79]
33 | ≤ 100 | ≤ 300 | COC1(c2cc3c(N[C@H](C)c4cccc(C(F)F)c4F)ccnc3cn2)CCC(O)CC1 (some centres unmarked) [Compound B-82]
34 | ≤ 100 | 300 to 1000 | C[C@@H](Nc1ccnc2cnc(C3(O)CCS(=O)(=O)CC3)cc12)c1cccc(C(F)F)c1F [Compound B-91]

Source: US20250042857A1, “SOS1 Inhibitor With Pyrido-Fused Six-Membered Ring Structure” (HAIHE BIOPHARMA CO., LTD., priority 2021, published 2025)
